Experimental data as given in ChEMBL document CHEMBL1145006 (J Med Chem, 2003).
pIC50, pKi: −log10 of the molar value. Starred links: 1 amine or outer side, 2 acyl side, 3 side chain; linkers in the order of their positions; H or OH if unused. Positions of bridges follow the written chain, without caps; N, C: chain ends. Non-standard residues stand in square brackets, D forms with d. Residues, ends and D or L forms follow the SMILES beside them. Groups on a side chain read outwards from the residue. *: point of attachment. Ethylenediamine = C(CN[*:2])N[*:1]; Hyp = O=C(O)[C@@H]1C[C@@H](O)CN1; Phg = N[C@H](C(=O)O)c1ccccc1; CO = O=C([*:1])[*:2]; Bn = c1ccc(C*)cc1

Experiments:
[1] = species on record: Rattus norvegicus; assay: In vitro inhibition of GHRH induced GH release in primary cultures of rat pituitary cells; assay type: functional, cell-based; conditions: Pituitary gland cell
[2] = molecular target: Somatostatin receptor type 3 (Homo sapiens, UniProt P32745); assay: Binding affinity towards human Somatostatin receptor type 3 (sst3) using Tyr11-[125I]-SRIF as radioligand was determined in CHO cells; assay type: cell-based
Sequence of Somatostatin receptor type 3 (P32745 whole entry): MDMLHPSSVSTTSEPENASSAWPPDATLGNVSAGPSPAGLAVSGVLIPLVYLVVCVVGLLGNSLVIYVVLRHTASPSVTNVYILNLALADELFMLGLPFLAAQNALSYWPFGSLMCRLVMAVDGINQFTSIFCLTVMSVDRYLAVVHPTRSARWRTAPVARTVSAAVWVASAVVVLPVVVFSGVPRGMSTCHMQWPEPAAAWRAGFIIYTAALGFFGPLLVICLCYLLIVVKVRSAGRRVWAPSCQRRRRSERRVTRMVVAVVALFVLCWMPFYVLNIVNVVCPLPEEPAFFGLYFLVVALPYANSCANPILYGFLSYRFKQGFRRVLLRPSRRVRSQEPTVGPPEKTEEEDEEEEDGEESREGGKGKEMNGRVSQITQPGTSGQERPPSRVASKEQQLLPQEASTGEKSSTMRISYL

[3] = molecular target: Somatostatin receptor type 4 (Homo sapiens, UniProt P31391); assay: Binding affinity towards human Somatostatin receptor type 4 (sst4) using Tyr11-[125I]-SRIF as radioligand was determined in CHO cells; assay type: cell-based; conditions: cho
Sequence of Somatostatin receptor type 4 (P31391 whole entry): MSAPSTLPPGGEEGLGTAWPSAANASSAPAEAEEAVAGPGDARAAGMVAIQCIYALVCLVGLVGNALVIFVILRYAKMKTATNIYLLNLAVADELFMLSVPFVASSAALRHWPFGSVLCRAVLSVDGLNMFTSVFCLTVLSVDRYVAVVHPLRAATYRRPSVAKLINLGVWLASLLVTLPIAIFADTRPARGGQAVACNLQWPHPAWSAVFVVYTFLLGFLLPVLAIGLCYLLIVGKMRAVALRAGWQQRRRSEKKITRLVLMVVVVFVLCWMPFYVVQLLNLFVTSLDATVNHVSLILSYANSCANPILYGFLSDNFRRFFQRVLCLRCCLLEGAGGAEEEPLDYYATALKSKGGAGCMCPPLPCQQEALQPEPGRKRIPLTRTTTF

[4] = molecular target: Somatostatin receptor type 2 (Homo sapiens, UniProt P30874); assay: Binding affinity towards human Somatostatin receptor type 2 (sst2) using Tyr11-[125I]-SRIF as radioligand was determined in CHO cells; assay type: cell-based
Sequence of Somatostatin receptor type 2 (P30874 whole entry): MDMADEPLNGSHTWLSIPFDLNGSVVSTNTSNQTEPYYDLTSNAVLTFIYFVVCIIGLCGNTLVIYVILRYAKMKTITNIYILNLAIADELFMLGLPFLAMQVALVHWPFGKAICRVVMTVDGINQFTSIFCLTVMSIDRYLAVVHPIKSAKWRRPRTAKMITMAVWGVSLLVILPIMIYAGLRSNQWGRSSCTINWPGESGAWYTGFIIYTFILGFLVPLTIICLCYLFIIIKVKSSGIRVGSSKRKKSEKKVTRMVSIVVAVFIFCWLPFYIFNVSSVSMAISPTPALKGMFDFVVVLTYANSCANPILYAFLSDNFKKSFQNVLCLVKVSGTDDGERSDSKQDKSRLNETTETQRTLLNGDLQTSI

[5] = molecular target: Somatostatin receptor type 1 (Homo sapiens, UniProt P30872); assay: Binding affinity towards human Somatostatin receptor type 1 (sst1) using Tyr11-[125I]-SRIF as radioligand was determined in CHO cells; assay type: cell-based
Sequence of Somatostatin receptor type 1 (P30872 whole entry): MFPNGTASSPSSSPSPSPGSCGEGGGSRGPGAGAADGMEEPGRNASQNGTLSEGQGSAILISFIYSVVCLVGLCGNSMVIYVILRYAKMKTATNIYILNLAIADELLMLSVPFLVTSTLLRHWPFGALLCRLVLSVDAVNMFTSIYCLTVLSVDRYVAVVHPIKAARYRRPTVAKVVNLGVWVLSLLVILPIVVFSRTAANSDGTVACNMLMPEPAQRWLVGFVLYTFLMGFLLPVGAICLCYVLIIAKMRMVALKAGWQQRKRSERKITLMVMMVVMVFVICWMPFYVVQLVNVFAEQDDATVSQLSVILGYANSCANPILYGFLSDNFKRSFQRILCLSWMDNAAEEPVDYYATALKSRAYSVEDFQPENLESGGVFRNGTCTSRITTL

[6] = molecular target: Somatostatin receptor type 5 (Homo sapiens, UniProt P35346); assay: Binding affinity towards human Somatostatin receptor type 5 (sst5) using Tyr11-[125I]-SRIF as radioligand was determined in COS cell; assay type: cell-based
Sequence of Somatostatin receptor type 5 (P35346 whole entry): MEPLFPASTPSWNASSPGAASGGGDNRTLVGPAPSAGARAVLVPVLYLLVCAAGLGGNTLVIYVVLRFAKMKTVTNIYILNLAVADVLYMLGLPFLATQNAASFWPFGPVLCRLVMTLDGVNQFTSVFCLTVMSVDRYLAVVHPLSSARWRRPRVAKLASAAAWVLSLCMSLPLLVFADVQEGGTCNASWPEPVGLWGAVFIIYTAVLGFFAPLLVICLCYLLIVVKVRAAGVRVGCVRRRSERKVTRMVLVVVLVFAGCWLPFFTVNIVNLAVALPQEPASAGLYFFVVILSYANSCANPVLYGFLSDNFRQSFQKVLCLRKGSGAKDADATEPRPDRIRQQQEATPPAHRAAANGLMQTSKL

pIC50 [1] | pKi [2] | Log Ki [3] | pKi [4] | pKi [5] | pKi [6] | Compound
9.40 | 9.10 | > -7 | 9.00 | 8.20 | 9.90 | NCCCC[C@@H]1NC(=O)[C@@H](Cc2c[nH]c3ccccc23)NC(=O)[C@H](c2ccccc2)NC(=O)[C@@H]2C[C@@H](OC(=O)NCCN)CN2C(=O)[C@H](Cc2ccccc2)NC(=O)[C@H](Cc2ccc(OCc3ccccc3)cc2)NC1=O [PASIREOTIDE] (cyclo(F[Hyp]([CO-Ethylenediamine])[Phg][dW]KY(Bn)))
 | 9.20 | > -7 | 9.10 | 8.80 | 9.60 | NCCCC[C@@H]1NC(=O)[C@@H](Cc2c[nH]c3ccccc23)NC(=O)[C@H](Cc2ccc(O)cc2)NC(=O)[C@@H]2C[C@@H](OC(=O)NCCN)CN2C(=O)[C@H](Cc2ccccc2)NC(=O)[C@H](Cc2ccc(OCc3ccccc3)cc2)NC1=O
 | 8.80 | > -8.4 | 9.00 | 8.20 | 9.20 | C[C@H](N)C(=O)NCC(=O)N[C@H]1CSSC[C@@H](C(N)=O)NC(=O)[C@H](CO)NC(=O)[C@H]([C@@H](C)O)NC(=O)[C@H](Cc2ccccc2)NC(=O)[C@H](C)NC(=O)[C@H](CCCCN)NC(=O)[C@H](Cc2c[nH]c3ccccc23)NC(=O)[C@H](Cc2ccccc2)NC(=O)[C@H](Cc2ccccc2)NC(=O)[C@H](CC(N)=O)NC(=O)[C@H](CCCCN)NC1=O (H-AGCKNFFWKAFTSC-NH2; disulfide 3-14)
